{"source": "patent US7977317B2", "about": "“Compositions and methods for modulating blood-brain barrier transport” (Raptor Pharmaceutical Inc., priority 2001, dated 2011)", "test_system": "human brain capillaries", "experiment": "Accumulation/uptake of [125I]-p97 in isolated human brain capillaries", "type": "binding", "description": "FIG. 5. Accumulation of p97 in human brain capillaries. Accumulation of [^125I]-p97 was measured at 37° C. for 1 h in isolated human brain capillaries (100 μg/assay). The incubation medium contained [^125I]-p97 and a final concentration of 100 nM p97 in Ringer/Hepes solution. The accumulation of [^125I]-p97 was performed in the presence or absence of 5 μm cold-p97, holo-transferrin or lactoferrin. […] The suspension was filtered under vacuum through a […] pore size Millipore filter. The filter was rinsed with 8 ml of stop solution, and the radioactivity was counted. Nonspecific binding of the radioactivity to the capillaries was determined by the addition of the ice-cold stop solution to the capillaries before adding the incubation medium. This value was subtracted from accumulation values obtained following an 1 h incubation. The results were expressed as ng of [^125I]-p97 accumulated per μg of brain capillaries.\nFIG. 16 illustrates the identification of a p97 receptor according to ligand specificity. FIG. 16a, Uptake of [^125I]-p97 into human brain capillaries. The uptake of [^125I]-p97 at 100 nM (control) into isolated human brain capillaries was measured for 1 h at 37° C. in the presence of a 50-fold molar excess of unlabelled p97, human holo-transferrin or human lactoferrin. (*[…] Student's t-test (n=5); FIG. 16b, Effect of RAP on [^125I]-p97 transcytosis across BBCEC monolayers. Apical-to-basal transport of [^125I]-p97 was measured in the presence (closed circles) or absence (open circles) of RAP (25 μg/ml) (n=5); FIG. 16c, Inhibition of bovine [^125I]-lactoferrin transport by p97. Transcytosis of bovine [^125I]-lactoferrin (50 nM) was measured in the presence (closed circles) or absence (open circles) of unlabelled p97 (5 μM) at 37° C. (n=3).\nA. Isolation of human brain capillaries. Capillaries of the blood-brain barrier were isolated from human brain cortex by a procedure previously described by Dallaire, et al., J. Biol. Chem., 267:22323-22327 (1992) with slight modifications. Human brains were obtained post-mortem. The brain was cleared of meninges, superficial large blood vessels and choroid plexus. All the following procedures were performed at 4° C. The cerebral cortex was homogenized in 5 volumes of Ringer/Hepes solution with a Polytron (Brinkman Instruments, Rexdale, Ontario, Canada). The homogenate was mixed with an equal volume of Dextran T-70 (27 g in 100 ml of Ringer/Hepes). The suspension was centrifuged at 25,000 g for 10 min. The pellet was resuspended in 30 ml of Ringer/Hepes and passed through a 250 μm nylon mesh screen. […]\nB. p97 accumulation in human brain capillaries. […] Accumulation of [^125I]-p97 was measured at 37° C. for 1 h in isolated human brain capillaries (100 μg/assay). […]", "data": [{"substance": "transferrin: transferrin (Tf), iron-binding serum protein used as comparator and competitor", "values": [{"measurement": "Inhibition of [125I]-p97 binding/accumulation in human brain capillaries", "setting": "competitor 5 micromolar, 100 nM p97, 1 h at 37° C. (FIG. 5)", "result": "no significant competition"}, {"measurement": "Competition with p97 for receptor binding in human brain capillaries, repeat experiment", "setting": "performed identically to FIG. 5 (FIG. 6)", "result": "not"}]}]}
